Drawing on US8729082B2, “Substituted imidazoquinoxalines” (Bayer Intellectual Property GmbH, priority 2009, dated 2014), this text covers IC50 for 29 molecules.

For this assay, the target named is T1, human kinase Mps-1 (Homo sapiens, UniProt P33981).
T1 construct: N-terminally GST-tagged human full length recombinant Mps-1 kinase; purchased Invitrogen, Karslruhe, Germany PV4071
T1 sequence (P33981 1-857): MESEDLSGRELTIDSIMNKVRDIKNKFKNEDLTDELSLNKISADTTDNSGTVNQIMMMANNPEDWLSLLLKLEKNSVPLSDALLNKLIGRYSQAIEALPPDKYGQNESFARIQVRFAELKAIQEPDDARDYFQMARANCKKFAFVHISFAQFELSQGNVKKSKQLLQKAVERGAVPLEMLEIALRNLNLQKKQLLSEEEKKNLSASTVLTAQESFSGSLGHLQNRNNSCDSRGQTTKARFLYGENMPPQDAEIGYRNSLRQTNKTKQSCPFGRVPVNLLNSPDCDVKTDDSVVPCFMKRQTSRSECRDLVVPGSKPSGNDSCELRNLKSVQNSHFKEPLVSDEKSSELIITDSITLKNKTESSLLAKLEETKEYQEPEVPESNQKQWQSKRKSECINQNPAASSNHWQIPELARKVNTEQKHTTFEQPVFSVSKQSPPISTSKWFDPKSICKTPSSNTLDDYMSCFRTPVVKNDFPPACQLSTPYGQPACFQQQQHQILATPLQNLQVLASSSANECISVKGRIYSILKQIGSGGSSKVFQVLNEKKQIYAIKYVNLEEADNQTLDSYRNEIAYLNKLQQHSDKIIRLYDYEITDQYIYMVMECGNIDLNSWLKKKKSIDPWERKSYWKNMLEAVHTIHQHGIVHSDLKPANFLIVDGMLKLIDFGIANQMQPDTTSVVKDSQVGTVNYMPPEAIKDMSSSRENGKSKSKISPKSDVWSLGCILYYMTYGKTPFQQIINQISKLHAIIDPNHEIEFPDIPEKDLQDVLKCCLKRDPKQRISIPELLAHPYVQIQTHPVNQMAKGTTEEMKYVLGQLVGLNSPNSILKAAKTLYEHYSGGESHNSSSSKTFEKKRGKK
In words: Mps-1 kinase assay (HTRF). The class given is biochemical. As to conditions: lowATP; mean; read-out: Mps1 lowATP mean IC50. In short, it runs like this:
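HTRF readout: EDTA-stopped reactions incubated 1 h with europium anti-phospho(Ser/Thr) antibody and streptavidin-XLent, emission ratio 665/620 nm after 350 nm excitation. Kinase step: compound pre-bound 15 min to ~1 nM GST-Mps-1, then 60 min at 22 °C with ATP and biotin-peptide substrate; inhibition scaled between no-inhibitor (0%) and no-enzyme (100%) controls.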
Turning to `CNC(=O)Nc1ccc(-c2cnc3c(NCCCO)nc4ccc(F)cc4n23)cc1` [Example 2-65, 1-(4-{8-fluoro-4-[(3-hydroxypropyl)amino]imidazo[1,2-a]quinoxalin-1-yl}phenyl)-3-methylurea], the IC50 was 5420 nM.

With `NS(=O)(=O)c1ccc(CCNc2nc3ccccc3n3c(-c4ccc(C(=O)NC5CC5)cc4)cnc23)cc1` [Example 2-21, N-cyclopropyl-4-(4-{[2-(4-sulfamoylphenyl)ethyl]amino}imidazo[1,2-a]quinoxalin-1-yl)benzamide], the IC50 was found to be 48.1 nM.

In the case of `CC(=O)NCCNc1nc2cc(C)c(C)cc2n2c(-c3ccc(C(=O)NC4CC4)c(Cl)c3)cnc12` [Example 2-188, 4-(4-{[2-(acetylamino)ethyl]amino}-7,8-dimethylimidazo[1,2-a]quinoxalin-1-yl)-2-chloro-N-cyclopropylbenzamide], the IC50 turned out to be 541 nM.

Regarding `COCCCNc1nc2cc(C)c(C)cc2n2c(-c3ccc(C(=O)NC4CC4)cc3)cnc12` [Example 2-155, N-cyclopropyl-4-{4-[(3-methoxypropyl)amino]-7,8-dimethylimidazo[1,2-a]quinoxalin-1-yl}benzamide], the IC50 was found to be 7.71 nM.

For `COc1ccc(-c2cnc3c(NCC(C)C)nc4ccccc4n23)cc1F` [Example 1-33, 1-(3-fluoro-4-methoxyphenyl)-N-(2-methylpropyl)imidazo[1,2-a]quinoxalin-4-amine], the IC50 turned out to be 1760 nM.

`O=C(NC1CC1)c1ccc(-c2cnc3c(NCCCn4ccnc4)nc4cc(F)c(F)cc4n23)cc1Cl` [Example 2-133, 2-chloro-N-cyclopropyl-4-(7,8-difluoro-4-{[3-(1H-imidazol-1-yl)propyl]amino}imidazo[1,2-a]quinoxalin-1-yl)benzamide]: the IC50 came to 3290 nM.

As to `CN(C)CCCNc1nc2ccccc2n2c(-c3ccc(C(=O)NC4CC4)cc3)cnc12` [Example 2-20, N-cyclopropyl-4-(4-{[3-(dimethylamino)propyl]amino}imidazo[1,2-a]quinoxalin-1-yl)benzamide], the IC50 stood at 744 nM.

As to `CS(=O)(=O)Nc1ccc(Nc2nc3ccccc3n3c(-c4ccc(C(=O)NC5CC5)cc4)cnc23)cc1` [Example 2-32, N-cyclopropyl-4-[4-({4-[(methylsulfonyl)amino]phenyl}amino)imidazo[1,2-a]quinoxalin-1-yl]benzamide], the IC50 was found to be 202 nM.

For the molecule `COCCCNc1nc2cc(C#N)ccc2n2c(-c3ccc(C(=O)NC4CC4)c(Cl)c3)cnc12` [Example 2-249, 2-chloro-4-{7-cyano-4-[(3-methoxypropyl)amino]imidazo[1,2-a]quinoxalin-1-yl}-N-cyclopropylbenzamide], the IC50 stood at 2400 nM.

With `Cc1cc2nc(NCc3cnn(C)c3)c3ncc(-c4ccc(C(=O)NC5CC5)c(Cl)c4)n3c2cc1C` [Example 2-200, 2-chloro-N-cyclopropyl-4-(7,8-dimethyl-4-{[(1-methyl-1H-pyrazol-4-yl)methyl]amino}imidazo[1,2-a]quinoxalin-1-yl)benzamide], the IC50 came out at 67.6 nM.

As for `CC(C)CNc1nc2cc(F)c(F)cc2n2c(-c3ccc(C(=O)NC4CC4)cc3)cnc12` [Example 2-106, N-cyclopropyl-4-{7,8-difluoro-4-[(2-methylpropyl)amino]imidazo[1,2-a]quinoxalin-1-yl}benzamide], the IC50 stood at 24.5 nM.

As to `CC(C)CNc1nc2ccccc2n2c(-c3ccc(C(=O)NC4(C#N)CC4)cc3)cnc12` [Example 3-22, N-(1-cyanocyclopropyl)-4-{4-[(2-methylpropyl)amino]imidazo[1,2-a]quinoxalin-1-yl}benzamide], the IC50 was determined as 214 nM.

Regarding `O=C(NC1CC1)c1ccc(-c2cnc3c(NCCCO)nc4ccc(F)cc4n23)cc1Cl` [Example 2-80, 2-chloro-N-cyclopropyl-4-{8-fluoro-4-[(3-hydroxypropyl)amino]imidazo[1,2-a]quinoxalin-1-yl}benzamide], the IC50 amounted to 3040 nM.

On to `CC(C)CNc1nc2ccccc2n2c(-c3ccc4c(c3)OCO4)cnc12` [Example 1-28, 1-(1,3-benzodioxol-5-yl)-N-(2-methylpropyl)imidazo[1,2-a]quinoxalin-4-amine], for which the IC50 came to 9900 nM.

As for `CC(C)CNc1nc2ccccc2n2c(-c3ccc(C(=O)Nc4cccc(NC(=O)c5ccncc5)c4)cc3)cnc12` [Example 3-27, N-{3-[(4-{4-[(2-methylpropyl)amino]imidazo[1,2-a]quinoxalin-1-yl}benzoyl)amino]phenyl}pyridine-4-carboxamide], the IC50 is 349 nM.

In the case of `CC(C)CNc1nc2ccccc2n2c(-c3cccc4cnccc34)cnc12` [Example 1-19, 1-(isoquinolin-5-yl)-N-(2-methylpropyl)imidazo[1,2-a]quinoxalin-4-amine], the IC50 is 11800 nM.

As for `O=C(NC1CC1)c1ccc(-c2cnc3c(NCC(F)(F)F)nc4cc(F)c(F)cc4n23)cc1` [Example 2-97, N-cyclopropyl-4-{7,8-difluoro-4-[(2,2,2-trifluoroethyl)amino]imidazo[1,2-a]quinoxalin-1-yl}benzamide], the IC50 amounted to 93.7 nM.

For `Cc1cc2nc(NCc3cccnc3)c3ncc(-c4ccc(C(=O)NC5CC5)cc4)n3c2cc1C` [Example 2-152, N-cyclopropyl-4-{7,8-dimethyl-4-[(pyridin-3-ylmethyl)amino]imidazo[1,2-a]quinoxalin-1-yl}benzamide], the IC50 amounted to 6.01 nM.

Take `NS(=O)(=O)CCNc1nc2cc(F)c(F)cc2n2c(-c3ccc(C(=O)NC4CC4)cc3)cnc12` [Example 2-112, N-cyclopropyl-4-{7,8-difluoro-4-[(2-sulfamoylethyl)amino]imidazo[1,2-a]quinoxalin-1-yl}benzamide]: the IC50 amounted to 53 nM.

With `COc1cc(C(=O)NC2CCN(C)CC2)ccc1Nc1nc2ccccc2n2c(-c3ccc(C(=O)NC4CC4)cc3)cnc12` [Example 2-39, 4-({1-[4-(cyclopropylcarbamoyl)phenyl]imidazo[1,2-a]quinoxalin-4-yl}amino)-3-methoxy-N-(1-methylpiperidin-4-yl)benzamide], the IC50 stood at 786 nM.

On to `N#Cc1ccc2c(c1)nc(NCCC(N)=O)c1ncc(-c3ccc(C(=O)NC4CC4)cc3)n12` [Example 2-217, 4-{4-[(3-amino-3-oxopropyl)amino]-7-cyanoimidazo[1,2-a]quinoxalin-1-yl}-N-cyclopropylbenzamide], for which the IC50 turned out to be 140 nM.

As to `CNC(=O)c1ccc(-c2cnc3c(NCC(C)C)nc4ccccc4n23)cc1` [Example 1-17, N-methyl-4-{4-[(2-methylpropyl)amino]imidazo[1,2-a]quinoxalin-1-yl}benzamide], the IC50 was determined as 192 nM.

For the molecule `O=C(NC1CC1)c1ccc(-c2cnc3c(NCC4CC4)nc4ccccc4n23)cc1` [Example 2-23, N-cyclopropyl-4-{4-[(cyclopropylmethyl)amino]imidazo[1,2-a]quinoxalin-1-yl}benzamide], the IC50 was 24.1 nM.

As to `CC(C)CNc1nc2ccccc2n2c(-c3cccc(F)c3F)cnc12` [Example 1-31, 1-(2,3-difluorophenyl)-N-(2-methylpropyl)imidazo[1,2-a]quinoxalin-4-amine], the IC50 worked out at 16300 nM.

With `CNC(=O)Nc1ccc(-c2cnc3c(NCc4cccnc4)nc4cc(C)c(C)cc4n23)cc1` [Example 2-171, 1-(4-{7,8-dimethyl-4-[(pyridin-3-ylmethyl)amino]imidazo[1,2-a]quinoxalin-1-yl}phenyl)-3-methylurea], the IC50 worked out at 283 nM.

Regarding `O=C(NC1CC1)c1ccc(-c2cnc3c(NCCCN4CCOCC4)nc4ccc(F)cc4n23)cc1` [Example 2-42, N-cyclopropyl-4-(8-fluoro-4-{[3-(morpholin-4-yl)propyl]amino}imidazo[1,2-a]quinoxalin-1-yl)benzamide], the IC50 was found to be 335 nM.

Take `CNC(=O)Nc1ccc(-c2cnc3c(NCCCN4CCOCC4)nc4cc(C)c(C)cc4n23)cc1` [Example 2-160, 1-[4-(7,8-dimethyl-4-{[3-(morpholin-4-yl)propyl]amino}imidazo[1,2-a]quinoxalin-1-yl)phenyl]-3-methylurea]: the IC50 was determined as 982 nM.

For `O=C(NC1CC1)c1ccc(-c2cnc3c(NCc4cccnc4)nc4cc(F)c(F)cc4n23)cc1Cl` [Example 2-135, 2-chloro-N-cyclopropyl-4-{7,8-difluoro-4-[(pyridin-3-ylmethyl)amino]imidazo[1,2-a]quinoxalin-1-yl}benzamide], the IC50 was 1580 nM.

For the molecule `CNC(=O)Nc1ccc(-c2cnc3c(NCc4cccnc4)nc4ccc(F)cc4n23)cc1` [Example 2-68, 1-(4-{8-fluoro-4-[(pyridin-3-ylmethyl)amino]imidazo[1,2-a]quinoxalin-1-yl}phenyl)-3-methylurea], the IC50 is 2970 nM.
